Results reported in ChEMBL document CHEMBL1770144, “Discovery of potent nucleotide-mimicking competitive inhibitors of hepatitis C virus NS3 helicase” (Bioorg Med Chem Lett, 2011).

Assays:
[1] = Competitive inhibition of Hepatitis C virus NS3 helicase; design: species or system Hepacivirus hominis
[2] = Competitive inhibition of Hepatitis C virus NS3 helicase using nucleic acid as substrate; design: species or system Hepacivirus hominis

SMILES | Ki [1] | Ki [2]
CCOc1ccc2nc(C)cc(NNC(=O)c3cnccn3)c2c1 | > 300 µM | 
CCOc1ccc2c(NNC(=O)c3cnccn3)c3c(nc2c1)CCCC3 | 0.02 µM | 20 nM
CCOc1ccc2c(NNS(=O)(=O)c3ccccc3)cc(C)nc2c1 | 5 µM | 
Cc1cc(NNC(=O)c2cnccn2)c2ccccc2n1 | > 300 µM | 
CCOc1ccc2c(NNS(=O)(=O)c3ccccn3)cc(C)nc2c1 | 0.3 µM | 
CCOc1ccc2c(NNS(=O)(=O)c3ccccn3)c3c(nc2c1)CCCC3 | 0.1 µM | 
CCOc1ccc2c(NNC(=O)c3cnccn3)cc(C)nc2c1 | 0.75 µM | 
O=C(NNc1c2c(nc3ccccc13)CCCC2)c1cnccn1 | > 300 µM | 
CCOc1ccc2c(NNC(=O)c3cc4ccccc4cn3)cc(C)nc2c1 | 250 µM | 
CCOc1ccc2c(NNC(=O)[C@@H]3CSCN3)cc(C)nc2c1 | > 300 µM | 
CCOc1ccc2c(NNC(=O)c3ccccc3)cc(C)nc2c1 | 125 µM | 
CCOc1ccc2c(NNC(=O)c3ccco3)cc(C)nc2c1 | > 300 µM | 
CCOc1ccc2c(NNS(=O)(=O)c3ccccc3)c3c(nc2c1)CCCC3 | 0.16 µM | 
CCOc1ccc2c(NNS(=O)(=O)c3ccc(C)cc3)cc(C)nc2c1 | 75 µM | 
